In paper PMC10223608, “Structural Congeners of Izenamides Responsible for Cathepsin D Inhibition: Insights from Synthesis-Derived Elucidation” (Marine Drugs, 2023):

Columns and labels:
Human liver cathepsin D = molecular target: T1, Human liver cathepsin D (Homo sapiens, UniProt P07339); assay: Cathepsin D (CTSD) human pepsin aspartic peptidase enzymatic assay (Eurofins Panlabs); assay type: biochemical; settings: for Inhibition of CTSD (%): 190 mU/mL enzyme, modified acetate buffer pH 4.0, 15 min preincubation at 37 °C, 20 μM MOCAc substrate for 10 min, spectrofluorimetric read-out, duplicate, N.A. = not active
T1 construct: tissue Eurofins Panlabs Discovery Services (ran the assay); host or cells: human liver
T1 sequence (P07339 65-412): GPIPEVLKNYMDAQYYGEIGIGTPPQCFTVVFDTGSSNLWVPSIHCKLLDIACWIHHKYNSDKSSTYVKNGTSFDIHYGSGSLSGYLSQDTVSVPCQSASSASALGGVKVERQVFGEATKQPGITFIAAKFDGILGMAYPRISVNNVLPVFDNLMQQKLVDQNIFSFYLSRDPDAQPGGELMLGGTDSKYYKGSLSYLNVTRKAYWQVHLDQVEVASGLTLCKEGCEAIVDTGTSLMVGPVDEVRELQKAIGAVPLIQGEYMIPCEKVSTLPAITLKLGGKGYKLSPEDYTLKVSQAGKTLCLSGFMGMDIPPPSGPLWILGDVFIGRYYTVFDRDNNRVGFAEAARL
Description: The CTSD-inhibition assay was performed at Eurofins Panlabs Discovery Services by measuring the percentage inhibition at concentrations of 0.5 and 1.0 μM (Table 1).
Human liver cathepsin D was used for the enzymatic essay. Test compound or vehicle was preincubated with 190 mU/mL enzyme in modified acetate buffer pH 4.0 for 15 minutes at 37 °C. The reaction was initiated by addition of 20 μM MOCAc-[…]Dnp)-D-Arg NH2 for another 10-minute incubation period. Determination of the amount of MOCAc formed was read spectrofluorimetrically at 340 nm/400. Compounds were screened at 0.5 and 1.0 μM. Cathepsin-D-Human-Pepsin-Aspartic-Peptidase-Enzymatic-Assay-Panlabs (eurofinsdiscovery.com, accessed on 22 February 2022).

CTSD = settings: natural izenamides; cited from earlier work
From the text: In 2018, izenamides A-C (1–3), which are linear depsipeptides, were first isolated from the marine cyanobacterium 1605-5 by Suenaga et al (Figure 1). Izenamides A (1) and B (2) contain four amino acids (Pro-O-Me, N-Me-Phe, Ala, and Ile); two α-hydroxy acids (two valic acids for 1, and one valic acid and one isoleucic acid for 2); and a γ-amino-β-hydroxy acid moiety known as statine [(3S,4S)-4-amino-3-hydroxy-6-methylheptanoic acid, Sta]. Izenamide C (3) also contains Pro-O-Me, N-Me-Phe, Ile, and valic acid; however, it contains Gly in place of Ala in 1 and 2, as well as isoleucic acid. ...

Substance	Inhibition of CTSD (%) (Human liver cathepsin D; 0.5 μM compound)	Inhibition of CTSD (%) (Human liver cathepsin D; 1.0 μM compound)	CTSD-inhibitory activity (in words) (Human liver cathepsin D; screened at 0.5 and 1.0 μM)	inhibitory activities against CTSD in vitro (in words) (CTSD)
izenamide B [Compound 2]	8.12%	14.76%		moderate inhibitory activities
izenamide A [Compound 1]	10.13%	15.55%		moderate inhibitory activities

Now from value to substance, other results behind:

Inhibition of CTSD (%) (Human liver cathepsin D; 0.5 μM compound)	Inhibition of CTSD (%) (Human liver cathepsin D; 1.0 μM compound)	CTSD-inhibitory activity (in words) (Human liver cathepsin D; screened at 0.5 and 1.0 μM)	Substance	inhibitory activities against CTSD in vitro (in words) (CTSD)
26.99%	36.07%		Sta-incorporated-izenamide C [Compound 7]	
		no CTSD inhibition	izenamide C [Compound 3]	does not show CTSD inhibition
37.29%	40.96%		18-epi-izenamide B [Compound 8]	
